Patent US8980830B2 (priority 2007, dated 2015)
Like-named read-outs stand apart in the source and are kept apart here. Values belong to the compound of their own block, whether it stands above or below them. Bridge positions count the residues as written; N and C are the ends. Square brackets hold non-standard residues; d marks the D form. Peptide text beside a SMILES is read from it. * marks the point of attachment. ξ: configuration not given here. X1 = CC(C)CCC[C@@H](C)[C@H]1CC[C@H]2[C@@H]3CC=C4C[C@@H](OC(=O)CCOCCOCCOCCOCCOCCOCCOCCOCCOCCOCCOCCOCCNC(=O)CSCCC(=O)*)CC[C@]4(C)[C@H]3CC[C@]12C; Palmitoyl = CCCCCCCCCCCCCCCC(=O)*; PhLac = O=C(O)[C@@H](O)Cc1ccccc1; ξPhLac = O=C(O)C(O)Cc1ccccc1

Assays:
GLP-1 Receptor = GLP-1 Receptor (Homo sapiens, UniProt P43220); assay: Functional assay, cAMP induction (luciferase reporter, HEK293) at GLP-1 receptor; assay type: cell-based
Glucagon Receptor = Glucagon Receptor (Homo sapiens, UniProt P47871); assay: cAMP inhibition: antagonism of glucagon-induced cAMP at glucagon receptor; assay type: cell-based; parameters: expressed in transfected cells; host or cells: HEK293
Glucagon Receptor, sequence (P47871 26-477): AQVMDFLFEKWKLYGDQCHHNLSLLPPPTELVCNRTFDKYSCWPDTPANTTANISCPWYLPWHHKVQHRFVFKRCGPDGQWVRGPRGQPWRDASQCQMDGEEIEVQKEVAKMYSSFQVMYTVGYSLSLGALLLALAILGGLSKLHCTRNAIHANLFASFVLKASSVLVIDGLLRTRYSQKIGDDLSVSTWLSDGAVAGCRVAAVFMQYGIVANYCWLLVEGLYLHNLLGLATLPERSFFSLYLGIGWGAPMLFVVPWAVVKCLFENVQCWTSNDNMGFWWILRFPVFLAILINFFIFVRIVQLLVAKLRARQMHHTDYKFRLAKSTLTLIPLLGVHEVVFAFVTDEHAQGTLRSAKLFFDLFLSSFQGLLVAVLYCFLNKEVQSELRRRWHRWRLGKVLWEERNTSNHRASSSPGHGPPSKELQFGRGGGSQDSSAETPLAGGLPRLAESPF

GLP-1 Receptor, sequence (P43220 24-463): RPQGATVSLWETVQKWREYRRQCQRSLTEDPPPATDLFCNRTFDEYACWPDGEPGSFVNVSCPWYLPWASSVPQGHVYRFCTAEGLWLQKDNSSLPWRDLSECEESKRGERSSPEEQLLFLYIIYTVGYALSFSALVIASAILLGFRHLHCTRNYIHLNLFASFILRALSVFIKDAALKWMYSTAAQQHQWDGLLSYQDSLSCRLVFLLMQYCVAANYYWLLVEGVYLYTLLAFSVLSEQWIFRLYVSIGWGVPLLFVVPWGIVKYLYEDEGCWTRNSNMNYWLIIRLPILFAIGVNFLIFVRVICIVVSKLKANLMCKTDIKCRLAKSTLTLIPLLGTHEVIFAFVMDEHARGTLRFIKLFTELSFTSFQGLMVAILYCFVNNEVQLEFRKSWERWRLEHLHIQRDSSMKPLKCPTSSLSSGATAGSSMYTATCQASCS

SMILES: CSCC[C@H](NC(=O)[C@H](CC(C)C)NC(=O)[C@H](Cc1c[nH]c2ccccc12)NC(=O)[C@H](CCC(N)=O)NC(=O)[C@@H](NC(=O)[C@H](Cc1ccccc1)NC(=O)[C@H](CC(=O)O)NC(=O)[C@H](CCC(N)=O)NC(=O)[C@H](C)NC(=O)[C@H](CCCNC(=N)N)NC(=O)[C@H](CCCNC(=N)N)NC(=O)[C@@H]1CCC(=O)NCCCC[C@H](NC(=O)[C@H](CO)NC(=O)[C@H](Cc2ccc(O)cc2)NC(=O)[C@H](CC(=O)O)NC(=O)[C@H](CO)NC(=O)[C@@H](NC(=O)[C@@H](N)Cc2ccccc2)[C@@H](C)O)C(=O)N[C@@H](Cc2ccc(O)cc2)C(=O)N[C@@H](CC(C)C)C(=O)N[C@@H](CC(=O)O)C(=O)N1)C(C)C)C(=O)N[C@@H](CC(N)=O)C(=O)N[C@H](C(=O)NCC(=O)N1CCC[C@H]1C(=O)N[C@@H](CO)C(=O)N[C@@H](CO)C(=O)NCC(=O)N[C@@H](C)C(=O)N1CCC[C@H]1C(=O)N1CCC[C@H]1C(=O)N1CCC[C@H]1C(=O)N[C@@H](CO)C(N)=O)[C@@H](C)O [D9, K12E16(Lactam)] (H-FTSDYSKYLDERRAQDFVQWLMNTGPSSGAPPPS-NH2; lactam 7-11; N-terminus assumed)
EC50 (GLP-1 Receptor; GLP-1 (nM), Table 13, GLP-1 agonist activity): 119 nM | EC50 (GLP-1 Receptor; GLP-1 EC50 (nM), Table 15): 18 nM | IC50 (Glucagon Receptor; Table 13, glucagon antagonist activity, read-out: Glu): 828 nM

SMILES: CSCC[C@H](NC(=O)[C@H](CC(C)C)NC(=O)[C@H](Cc1c[nH]c2ccccc12)NC(=O)[C@H](CCC(N)=O)NC(=O)[C@@H](NC(=O)[C@H](Cc1ccccc1)NC(=O)[C@H](CC(=O)O)NC(=O)[C@@H]1CCCCNC(=O)CC[C@H](NC(=O)[C@H](CC(=O)O)NC(=O)[C@H](CC(C)C)NC(=O)[C@H](Cc2ccc(O)cc2)NC(=O)[C@H](CCCCN)NC(=O)[C@H](CO)NC(=O)[C@H](Cc2ccc(O)cc2)NC(=O)[C@H](CCC(=O)O)NC(=O)[C@H](CO)NC(=O)[C@@H](NC(=O)[C@@H](N)Cc2ccccc2)[C@@H](C)O)C(=O)N[C@@H](CCCNC(=N)N)C(=O)N[C@@H](CCCNC(=N)N)C(=O)N[C@@H](C)C(=O)N1)C(C)C)C(=O)N[C@@H](CC(N)=O)C(=O)N[C@H](C(=O)NCC(=O)N1CCC[C@H]1C(=O)N[C@@H](CO)C(=O)N[C@@H](CO)C(=O)NCC(=O)N[C@@H](C)C(=O)N1CCC[C@H]1C(=O)N1CCC[C@H]1C(=O)N1CCC[C@H]1C(=O)N[C@@H](CO)C(N)=O)[C@@H](C)O [E9, E16K20(lactam)]
EC50 (GLP-1 Receptor; GLP-1 agonism EC50 (nM), Table 16): 36.4 ± 3.5 nM | IC50 (Glucagon Receptor; Glucagon antagonism IC50 (nM, inhibit 0.2-0.8 nM glucagon), Table 16, combined results of three assays): 42 ± 3.6 nM

SMILES: CSCC[C@H](NC(=O)[C@H](CC(C)C)NC(=O)[C@H](Cc1c[nH]c2ccccc12)NC(=O)[C@H](CCC(N)=O)NC(=O)[C@@H](NC(=O)[C@H](Cc1ccccc1)NC(=O)[C@H](CC(=O)O)NC(=O)[C@@H]1CCCCNC(=O)CC[C@H](NC(=O)[C@H](CC(=O)O)NC(=O)[C@H](CC(C)C)NC(=O)[C@H](Cc2ccc(O)cc2)NC(=O)[C@H](CCCCN)NC(=O)[C@H](CO)NC(=O)[C@H](CCCCNC(=O)CCSCC(=O)NCCOCCOCCOCCOCCOCCOCCOCCOCCOCCOCCOCCOCCC(=O)O[C@H]2CC[C@@]3(C)C(=CC[C@H]4[C@@H]5CC[C@H]([C@H](C)CCCC(C)C)[C@@]5(C)CC[C@@H]43)C2)NC(=O)[C@H](CC(=O)O)NC(=O)[C@H](CO)NC(=O)[C@@H](NC(=O)[C@@H](O)Cc2ccccc2)[C@@H](C)O)C(=O)N[C@@H](CCCNC(=N)N)C(=O)N[C@@H](CCCNC(=N)N)C(=O)N[C@@H](C)C(=O)N1)C(C)C)C(=O)N[C@@H](CC(=O)O)C(=O)N[C@H](C(N)=O)[C@@H](C)O [K10-chol G(6-29), [PLA6, K10(COCH2CH2S-Chol), E16K20(lactam), D28]G(6-29) amide] (H-[PhLac]TSDK(X1)SKYLDERRAKDFVQWLMDT-NH2; lactam 11-15)
EC50 (GLP-1 Receptor; GLP-1 agonism EC50 (nM), Table 23, standard deviation in ( )): 35.3 nM

EC50 (GLP-1 Receptor; GLP-1 agonism EC50 (nM), Table 24): 18 ± 2.14 nM
SMILES: CSCC[C@H](NC(=O)[C@H](CC(C)C)NC(=O)[C@H](Cc1c[nH]c2ccccc12)NC(=O)[C@H](CCC(N)=O)NC(=O)[C@@H](NC(=O)[C@H](Cc1ccccc1)NC(=O)[C@H](CC(=O)O)NC(=O)[C@@H]1CCCCNC(=O)CC[C@H](NC(=O)[C@H](CC(=O)O)NC(=O)[C@H](CC(C)C)NC(=O)[C@H](Cc2ccc(O)cc2)NC(=O)[C@H](CCCCN)NC(=O)[C@H](CO)NC(=O)[C@H](Cc2ccc(O)cc2)NC(=O)[C@H](CC(=O)O)NC(=O)[C@H](CO)NC(=O)[C@@H](NC(=O)[C@H](Cc2ccccc2)OC(=O)[C@@H](NC(=O)CNC(=O)[C@H](CCC(=O)O)NC(=O)[C@H](C)N)[C@@H](C)O)[C@@H](C)O)C(=O)N[C@@H](CCCNC(=N)N)C(=O)N[C@@H](CCCNC(=N)N)C(=O)N[C@@H](C)C(=O)N1)C(C)C)C(=O)N[C@@H](CC(=O)O)C(=O)N[C@H](C(N)=O)[C@@H](C)O [[A2E3-O-PLA6, D9, E16K20(Lactam), D28] G(2-29)] (H-AEGT[PhLac]TSDYSKYLDERRAKDFVQWLMDT-NH2; lactam 15-19; N-terminus assumed)

EC50 (GLP-1 Receptor; GLP-1 agonism EC50 (nM), Table 22): 45.7 ± 13.8 nM
SMILES: CCCCCCCCCCCCCCCC(=O)O[C@@H](Cc1ccccc1)C(=O)N[C@H](C(=O)N[C@@H](CO)C(=O)N[C@@H](CC(=O)O)C(=O)N[C@@H](Cc1ccc(O)cc1)C(=O)N[C@@H](CO)C(=O)N[C@@H](CCCCN)C(=O)N[C@@H](Cc1ccc(O)cc1)C(=O)N[C@@H](CC(C)C)C(=O)N[C@@H](CC(=O)O)C(=O)N[C@H]1CCC(=O)NCCCC[C@@H](C(=O)N[C@@H](CC(=O)O)C(=O)N[C@@H](Cc2ccccc2)C(=O)N[C@H](C(=O)N[C@@H](CCC(N)=O)C(=O)N[C@@H](Cc2c[nH]c3ccccc23)C(=O)N[C@@H](CC(C)C)C(=O)N[C@@H](CCSC)C(=O)N[C@@H](CC(=O)O)C(=O)N[C@H](C(N)=O)[C@@H](C)O)C(C)C)NC(=O)[C@H](C)NC(=O)[C@H](CCCNC(=N)N)NC(=O)[C@H](CCCNC(=N)N)NC1=O)[C@@H](C)O [[C16FA-O-PLA6, E16K20(lactam),D28]G(6-29)] (Palmitoyl-[PhLac]TSDYSKYLDERRAKDFVQWLMDT-NH2; lactam 11-15)

GLP-1 agonism EC50(nM) (GLP-1 Receptor; Table 18): No agonism
SMILES: CC[C@H](C)[C@H](NC(=O)[C@H](Cc1ccccc1)NC(=O)[C@H](CC(=O)O)NC(=O)[C@H](CCCCN)NC(=O)[C@H](C)NC(=O)[C@H](C)NC(=O)[C@H](CCC(N)=O)NC(=O)[C@@H]1CCC(=O)NCCCC[C@H](NC(=O)[C@H](CO)NC(=O)[C@H](Cc2ccc(O)cc2)NC(=O)[C@H](CC(=O)O)NC(=O)[C@H](CO)NC(=O)[C@@H](NC(=O)C(O)Cc2ccccc2)[C@@H](C)O)C(=O)N[C@@H](Cc2ccc(O)cc2)C(=O)N[C@@H](CC(C)C)C(=O)N[C@@H](CC(=O)O)C(=O)N1)C(=O)N[C@@H](C)C(=O)N[C@@H](Cc1c[nH]c2ccccc12)C(=O)N[C@@H](CC(C)C)C(=O)N[C@@H](CCSC)C(=O)N[C@@H](CC(=O)O)C(=O)N[C@H](C(N)=O)[C@@H](C)O (stereo partly drawn) [[PLA6, K12E16(lactam), GLP(23-32)]G(6-29)] (H-[ξPhLac]TSDYSKYLDEQAAKDFIAWLMDT-NH2; lactam 7-11)
